Entries after “also recorded” stand apart in the source; their conditions may differ.
Tests used:
[1] = system: human normal cells (GM05757); test: In vitro toxicity in human normal cells, 72-hr treatment, MTT assay; type: cell-based; conditions: GM05757, 72-hr treatment, without ionizing radiation, 0-50 μM cisplatin, 0-200 μM compounds
Text: (§1) Dibromo-diamino-benzene (Dibromo-phenylenediamine, Compound B) was obtained from TCI-America. Diiodo-diaminobenzene (Compound C) were synthesized, purified and crystallized in our laboratory, and the structures and purity were examined by NMR and mass spectrometry. MEM and fetal bovine serum (FBS), penicillin G and streptomycin were obtained from Hyclone Laboratories (UT, USA). Stock solution of cisplatin was freshly prepared in ultrapure water or saline, and stock solutions of Compounds A, B, C, D were prepared in pure ethanol, where the final concentration of ethanol was ≦1% when treated to cells.
A human skin diploid fibroblast (GM05757 cell line) was obtained from the Coriell Cell Repository directly. Fetal bovine serum (FBS) was obtained from Hyclone Laboratories (UT, USA). The GM05757 normal cells were cultivated with MEM (Hyclone) supplemented with 10% FBS, 100 units/mL penicillin G and 100 μg/mL streptomycin (Hyclone). The cells were maintained at 37° C. in a humidified atmosphere containing 5% CO2.
The radiosensitizing effects of RSCs on cell viability were determined by the 3-[4,5-dimethylthiazol-2-yl]-2,5-diphenyl tetrazoliumbromide (MTT) assay. Cells were cultured in 96-well plates (5×10^3 cells/well) for 24 h. The culture medium was replaced by fresh culture medium and incubated for 72 h with varying drug concentrations. The MTT assay of cell viability was then conducted. Briefly, 100 μl new medium without phenol red containing 1.2 mM MTT (sigma) (i.e., adding 10 μl 12 mM MTT stock solution in PBS) were added to each well and incubated for 4 h. The medium was then removed, and the formazan crystals solubilized by 100 μL/well DMSO (or alternatively by 100 μl/well SDS and incubated for another 4 h). The surviving fraction was determined by measuring the absorbance at 540 nm (570 nm for SDS solubilization) using a Multiskan Spectrum UV/Vis microplate reader (Thermo Scientific), which is directly proportional to the number of viable cells.

[2] = system: cisplatin-resistant human lung cancer (HTB-161) cells; test: In vitro radiosensitizing effect, 18-day clonogenic assay; type: cell-based; conditions: HTB-161, 12-hr treatment, 0-10 Gy 225 keV X-ray
Text: as §1, with “TCI—America.” for “TCI-America.”
A human skin diploid fibroblast (GM05757 cell line) was obtained from the Coriell Cell Repository directly, while the human cervical cancer cell line (HeLa, ATCC#: CCL-2; or ME-180), human ovarian cancer cell line (NIH:OVCAR-3, ATCC#: HTB-161) and human lung cancer cell line (A549, ATCC#: CCL-185™), together with RPMI 1640, F-12K, McCoy's 5 A and L-15 culture media, were obtained from the American Type Culture Collection (ATCC) directly. Fetal bovine serum (FBS) was obtained from Hyclone Laboratories (UT, USA). The GM05757 normal cells and HeLa cells were cultivated with MEM (Hyclone) supplemented with 10% FBS, 100 units/mL penicillin G and 100 μg/mL streptomycin (Hyclone). […]

[3] = In vivo pharmacokinetics of Compound B in SCID mice
Text: Blood samples were collected from the saphenous vein of mice at various time points after IP injection of the compound into the mice and then analyzed using HPLC-Mass Spectrometry.

SCID mice = test: In vivo toxicity of Compound B in SCID mice
Procedure: The three groups (five 6-8 week SCID mice/group) in the experiment were: (1) control article (5% EtOH/medium); (2) Compound B 5 mg/kg in 5% EtOH/medium; and (3) Compound B 7 mg/kg in 5% EtOH/medium, as shown in Table 1. Compound B was injected IP every day for 10 days.
6.1.2 Mouse and Compound B Solution Preparation: • 6-8 week SCID mice were used in this study; Compound B as an exemplary RSC was dissolved in 5% EtOH: 95% (cell culture) medium (≈1:20).
6-8 week SCID Mice were individually weighed and injected intraperitoneally (IP) according to body weight for an injection concentration as outlined in the study group table above. […]
The overall drug toxicity in mice was observed by a survival assay and body weight measurements, and the acute drug toxicity was measured by blood collection and histology. The hepatotoxicity (ALT, ALP, AST), nephrotoxicity (blood BUN, creatinine), and electrolytes (Na, K, etc) were analyzed by HPLC-mass spectroscopy. […]
All animals were observed post administration, and at least once a day, more if deemed necessary, during the pre-treatment and treatment periods for mortality and morbidity. In particular, animals were monitored for signs of ill health such as body weight loss, change in appetite, behavior changes such as altered gait, lethargy and gross manifestations of stress.

## Nc1cc(Br)c(Br)cc1N [Compound B, 4,5-dibromo-1,2-phenylenediamine]
[1]
  toxicity toward human normal cells: essentially no toxicity; also recorded: little toxicity up to 200 μM
[2]
  enhancement of radiosensitivity of cisplatin-resistant cancer cells to X-ray: significant enhancement in the radiosensitivity
[3]; after IP injection
  detection of compound in blood/plasma: significant levels; also recorded: detected in the plasma
  elimination from the body: well expelled from the body within a few hours
[3]; plasma/blood, IP 0-7 mg/kg, HPLC-Mass Spectrometry
  time of highest concentration after i.p. injection: about 20 minutes
[3]; plasma/blood, after i.p. injection
  time at which concentration dropped to nearly zero: about 3 hr
SCID mice; IP 0, 5 and 7 mg/kg daily for 10 days
  overall toxicity in mice (survival, body weight): no overall drug toxicity; also recorded: no overall toxicity in mice
SCID mice; SCID, mouse, in vivo, 10 days
  survival rate of mice: 100%

Reference: patent US9655965B2, “Radiosensitizer compounds for use in combination with radiation” (priority 2013, dated 2017)
